The nature of this series: Dissolution of lactam / PVP solid dispersion in water (visual, FIG. 1). The series is classed as physicochemical. As to conditions: added to water, amount of lactam equivalent to that in the 1% lactam/PVP solid dispersion. An excerpt:
The inventor(s) have shown that solid dispersion of lactam in PVP confers enhanced aqueous solubility to the lactam. […] Note that this example is a proof of concept, and the lactam used was 4-(4-fluorophenyl)-5-methylene-pyrrol-2-one.
Such solid dispersions dissolve rapidly to give clear solutions.

With `C=C1NC(=O)C=C1c1ccc(F)cc1` [4-(4-fluorophenyl)-5-methylene-pyrrol-2-one], the “dissolution in water (aqueous solubility)” value was “does not dissolve”.
